Experimental data as given in patent US20100298141A1, “SUBSTITUTED PYRIDINE N-OXIDE HERBICIDES” (E. I. DU PONT DE NEMOURS AND COMPANY, priority 2007, published 2010).

What was measured:
[1] = system: common (oilseed) sunflower; assay: Test C pre-/postemergence test; type: in vivo, Helianthus annuus; conditions: for Sunflower plant response rating: preemergence, scale 0 (no effect) to 100 (complete control)
Procedure, shortened: (§1)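 Compounds in a non-phytotoxic solvent with surfactant applied preemergence to seeded pots and, at the same time, postemergence to plants 2–18 cm tall (1- to 4-leaf stage). Paddy tests: pots flooded to 3 cm, compound applied into the water, depth held throughout.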

[2] = system: morningglory; assay: Test A pre-/postemergence greenhouse test; type: in vivo, Ipomoea spp.; conditions: for Morningglory plant response rating: 0 to 100 scale
Procedure, shortened: (§2)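 Herbicidal effect is a visual injury score given about ten days post-treatment by comparison with untreated controls. Preemergence plots received a directed spray onto sown loam–sand soil; postemergence plants, at the one- to two-leaf stage and 2–10 cm tall, were sprayed at the same time.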

[3] = system: crabgrass; assay: Test C pre-/postemergence test; type: in vivo, Digitaria sanguinalis; conditions: for Plant response rating, Crabgrass, Large: scale 0 to 100, 0 no effect, 100 complete control
Procedure, shortened: as §1

[4] = system: eastern black nightshade; assay: Test C pre-/postemergence test; type: in vivo, Solanum ptycanthum
From the text: Seeds of plant species selected from blackgrass (Alopecurus myosuroides), downy brome (Bromus tectorum), green foxtail (Setaria viridis), Italian ryegrass (Lolium multiflorum), wheat (Triticum aestivum), wild oat (Avena fatua), catchweed bedstraw (Galium aparine), Russian thistle (Salsola kali), […] (Cynodon dactylon), Surinam grass (Brachiaria decumbens), cocklebur (Xanthium strumarium), corn (Zea mays), crabgrass (Digitaria sanguinalis), woolly cupgrass (Eriochloa villosa), giant foxtail (Setaria faberii), Goosegrass (Eleusin indica), johnsongrass (Sorghum halepense), kochia (Kochia scoparia), lambsquarters (Chenopodium album), morningglory (Ipomoea coccinea), eastern black nightshade (Solanum ptycanthum), yellow nutsedge (Cyperus esculentus), pigweed (Amaranthus retroflexus), common ragweed (Ambrosia elation), soybean (Glycine max), common (oilseed) sunflower (Helianthus annuus), and velvetleaf (Abutilon theophrasti) were planted and treated preemergence with test chemicals formulated in a non-phytotoxic solvent mixture which included a surfactant. At the same time, plants selected from these crop and weed species and also winter barley (Hordeum vulgare), canarygrass (Phalaris minor), and chickweed (Stellaria media) were treated with postemergence applications of some of the test chemicals formulated in the same manner. Plants ranged in height from 2 to 18 cm (1- to 4-leaf stage) for postemergence treatments. […] At time of treatment, test pots were flooded to 3 cm above the soil surface, treated by application of test compounds directly to the paddy water, and then maintained at that water depth for the duration of the test. […] A dash (-) response means no test result.

[5] = system: bermudagrass; assay: Test C pre-/postemergence test; type: in vivo, Cynodon dactylon; conditions: for Plant response rating, Bermudagrass: scale 0 to 100, 0 no effect, 100 complete control
Procedure, shortened: as §1

[6] = system: corn; assay: Test A pre-/postemergence greenhouse test; type: in vivo, Zea mays; conditions: for Corn plant response rating: 0 to 100 scale
Procedure, shortened: as §2

[7] = system: barnyardgrass; assay: Test A pre-/postemergence greenhouse test; type: in vivo, Echinochloa crus-galli; conditions: for Barnyardgrass plant response rating: 0 to 100 scale
Procedure, shortened: as §2

[8] = system: redroot pigweed; assay: Test A pre-/postemergence greenhouse test; type: in vivo, Amaranthus retroflexus; conditions: for Pigweed plant response rating: 0 to 100 scale
Procedure, shortened: as §2

[9] = system: Surinam grass; assay: Test C pre-/postemergence test; type: in vivo, Brachiaria decumbens; conditions: for Surinam Grass plant response rating: preemergence, scale 0 (no effect) to 100 (complete control); for Plant response rating, Surinam Grass: scale 0 to 100, 0 no effect, 100 complete control
Procedure, shortened: as §1

[10] = system: wheat; assay: Test A pre-/postemergence greenhouse test; type: in vivo, Triticum aestivum; conditions: for Wheat plant response rating: 0 to 100 scale
Procedure, shortened: as §2

[11] = system: wheat; assay: Test C pre-/postemergence test; type: in vivo, Triticum aestivum; conditions: Postemergence; for Plant response rating, Wheat: scale 0 to 100, 0 no effect, 100 complete control
Procedure, shortened: as §1

[12] = system: pigweed; assay: Test C pre-/postemergence test; type: in vivo, Amaranthus retroflexus; conditions: for Plant response rating, Pigweed: scale 0 to 100, 0 no effect, 100 complete control
Procedure, shortened: as §1

[13] = system: Goosegrass; assay: Test C pre-/postemergence test; type: in vivo, Eleusin indica; conditions: for Plant response rating, Goosegrass: scale 0 to 100, 0 no effect, 100 complete control
Procedure, shortened: as §1

[14] = system: lambsquarters; assay: Test C pre-/postemergence test; type: in vivo, Chenopodium album; conditions: for Plant response rating, Lambsquarters: scale 0 to 100, 0 no effect, 100 complete control
Procedure, shortened: as §1

[15] = system: giant foxtail; assay: Test A pre-/postemergence greenhouse test; type: in vivo, Setaria faberi; conditions: for Foxtail, Giant plant response rating: 0 to 100 scale
Procedure, shortened: as §2

[16] = Postemergence, 125 g ai/ha, 0 is no effect, 100 is complete control
[17] = Postemergence, 500 g ai/ha, 0 is no effect, 100 is complete control
[18] = Preemergence, 125 g ai/ha, 0 no effect, 100 complete control
[19] = Preemergence, 500 g ai/ha, 0 to 100 scale where 0 is no effect and 100 is complete control
[20] = 31 g ai/ha, Preemergence, scale 0 to 100
[21] = 62 g ai/ha, preemergence, scale 0 (no effect) to 100 (complete control)
[22] = preemergence, 125 g ai/ha, scale 0 (no effect) to 100 (complete control)

Q: `Cn1nc(C(F)(F)F)c(C[S+]([O-])c2ccc(Cl)c[n+]2[O-])c1OC(F)F` (stereo not shown) [Compound 6] was tested. Which “Sunflower plant response rating” value ([1]; 62 g ai/ha) did it give?
A: 0

Q: And the “Plant response rating (0 to 100), Sunflower” value ([1]; Preemergence, 250 g ai/ha)?
A: 10

Q: What about the “Sunflower plant response rating” value ([1]; 125 g ai/ha) of the same compound?
A: 5

Q: And the “Morningglory plant response rating” value [2, 16]?
A: 80

Q: And the “Morningglory plant response rating” value [2, 17]?
A: 90

Q: What about the “Morningglory plant response rating” value [2, 18] of the same compound?
A: 90

Q: And the “Plant response rating, Morningglory” value [2, 19]?
A: 100

Q: And the “Crabgrass, Large plant response rating” value [3, 20]?
A: 98

Q: What about the “Crabgrass, Large plant response rating” value [3, 21] of the same compound?
A: 100

Q: What about the “Plant response rating (0 to 100), Crabgrass, Large” value ([3]; Postemergence, 31 g ai/ha) of the same compound?
A: 5

Q: And the “Plant response rating, Crabgrass, Large” value ([3]; Postemergence, 62 g ai/ha)?
A: 10

Q: And the “Plant response rating, Crabgrass, Large” value ([3]; Postemergence, 125 g ai/ha)?
A: 40

Q: What about the “Plant response rating, Crabgrass, Large” value ([3]; Postemergence, 250 g ai/ha) of the same compound?
A: 45

Q: What about the “Plant response rating (0 to 100), Crabgrass, Large” value ([3]; Preemergence, 250 g ai/ha) of the same compound?
A: 100

Q: What about the “Crabgrass, Large plant response rating” value [3, 22] of the same compound?
A: 100

Q: And the “Nightshade plant response rating” value [4, 21]?
A: 98

Q: What about the “Plant response rating (0 to 100), Nightshade” value ([4]; Preemergence, 250 g ai/ha) of the same compound?
A: 100

Q: And the “Bermudagrass plant response rating” value [5, 20]?
A: 98

Q: And the “Bermudagrass plant response rating” value [5, 21]?
A: 98

Q: And the “Plant response rating (0 to 100), Bermudagrass” value ([5]; Postemergence, 31 g ai/ha)?
A: 0

Q: And the “Plant response rating, Bermudagrass” value ([5]; Postemergence, 62 g ai/ha)?
A: 10

Q: What about the “Plant response rating, Bermudagrass” value ([5]; Postemergence, 125 g ai/ha) of the same compound?
A: 50

Q: And the “Plant response rating, Bermudagrass” value ([5]; Postemergence, 250 g ai/ha)?
A: 80

Q: And the “Plant response rating (0 to 100), Bermudagrass” value ([5]; Preemergence, 250 g ai/ha)?
A: 100

Q: What about the “Bermudagrass plant response rating” value [5, 22] of the same compound?
A: 100

Q: And the “Corn plant response rating” value [6, 16]?
A: 60

Q: What about the “Corn plant response rating” value [6, 17] of the same compound?
A: 80

Q: And the “Corn plant response rating” value [6, 18]?
A: 80

Q: And the “Plant response rating, Corn” value [6, 19]?
A: 90

Q: And the “Barnyardgrass plant response rating” value [7, 16]?
A: 80

Q: What about the “Barnyardgrass plant response rating” value [7, 17] of the same compound?
A: 90

Q: And the “Barnyardgrass plant response rating” value [7, 18]?
A: 100

Q: What about the “Plant response rating, Barnyardgrass” value [7, 19] of the same compound?
A: 100

Q: What about the “Pigweed plant response rating” value [8, 16] of the same compound?
A: 100

Q: What about the “Pigweed plant response rating” value [8, 17] of the same compound?
A: 100

Q: What about the “Pigweed plant response rating” value [8, 18] of the same compound?
A: 100

Q: What about the “Plant response rating, Pigweed” value [8, 19] of the same compound?
A: 100

Q: What about the “Surinam Grass plant response rating” value ([9]; 62 g ai/ha) of the same compound?
A: 98

Q: What about the “Plant response rating (0 to 100), Surinam Grass” value ([9]; Postemergence, 31 g ai/ha) of the same compound?
A: 0

Q: And the “Plant response rating (0 to 100), Surinam Grass” value ([9]; Postemergence, 62 g ai/ha)?
A: 0

Q: What about the “Plant response rating, Surinam Grass” value ([9]; Postemergence, 125 g ai/ha) of the same compound?
A: 30

Q: And the “Plant response rating, Surinam Grass” value ([9]; Postemergence, 250 g ai/ha)?
A: 30

Q: What about the “Plant response rating (0 to 100), Surinam Grass” value ([9]; Preemergence, 250 g ai/ha) of the same compound?
A: 100

Q: And the “Surinam Grass plant response rating” value ([9]; 125 g ai/ha)?
A: 100

Q: What about the “Wheat plant response rating” value [10, 16] of the same compound?
A: 30

Q: What about the “Wheat plant response rating” value [10, 17] of the same compound?
A: 70

Q: And the “Wheat plant response rating” value [10, 18]?
A: 90

Q: What about the “Plant response rating, Wheat” value [10, 19] of the same compound?
A: 90

Q: And the “Plant response rating (0 to 100), Wheat” value ([11]; 31 g ai/ha)?
A: 20

Q: What about the “Plant response rating (0 to 100), Wheat” value ([11]; 62 g ai/ha) of the same compound?
A: 20

Q: What about the “Plant response rating, Wheat” value ([11]; 125 g ai/ha) of the same compound?
A: 20

Q: What about the “Plant response rating, Wheat” value ([11]; 250 g ai/ha) of the same compound?
A: 25

Q: What about the “Pigweed plant response rating” value [12, 21] of the same compound?
A: 100

Q: And the “Plant response rating (0 to 100), Pigweed” value ([12]; Postemergence, 31 g ai/ha)?
A: 0

Q: What about the “Plant response rating (0 to 100), Pigweed” value ([12]; Postemergence, 62 g ai/ha) of the same compound?
A: 0

Q: What about the “Plant response rating, Pigweed” value ([12]; Postemergence, 125 g ai/ha) of the same compound?
A: 0

Q: What about the “Plant response rating, Pigweed” value ([12]; Postemergence, 250 g ai/ha) of the same compound?
A: 0

Q: And the “Plant response rating (0 to 100), Pigweed” value ([12]; Preemergence, 250 g ai/ha)?
A: 100

Q: And the “Goosegrass plant response rating” value [13, 20]?
A: 98

Q: What about the “Goosegrass plant response rating” value [13, 21] of the same compound?
A: 100

Q: What about the “Plant response rating (0 to 100), Goosegrass” value ([13]; Postemergence, 31 g ai/ha) of the same compound?
A: 0

Q: What about the “Plant response rating, Goosegrass” value ([13]; Postemergence, 62 g ai/ha) of the same compound?
A: 0

Q: What about the “Plant response rating, Goosegrass” value ([13]; Postemergence, 125 g ai/ha) of the same compound?
A: 20

Q: And the “Plant response rating, Goosegrass” value ([13]; Postemergence, 250 g ai/ha)?
A: 45

Q: What about the “Plant response rating (0 to 100), Goosegrass” value ([13]; Preemergence, 250 g ai/ha) of the same compound?
A: 100

Q: And the “Goosegrass plant response rating” value [13, 22]?
A: 100

Q: And the “Lambsquarters plant response rating” value [14, 21]?
A: 0

Q: And the “Plant response rating (0 to 100), Lambsquarters” value ([14]; Postemergence, 31 g ai/ha)?
A: 0

Q: And the “Plant response rating, Lambsquarters” value ([14]; Postemergence, 62 g ai/ha)?
A: 10

Q: And the “Plant response rating, Lambsquarters” value ([14]; Postemergence, 125 g ai/ha)?
A: 10

Q: And the “Plant response rating, Lambsquarters” value ([14]; Postemergence, 250 g ai/ha)?
A: 10

Q: What about the “Plant response rating (0 to 100), Lambsquarters” value ([14]; Preemergence, 250 g ai/ha) of the same compound?
A: 100

Q: What about the “Foxtail, Giant plant response rating” value [15, 16] of the same compound?
A: 70

Q: And the “Foxtail, Giant plant response rating” value [15, 17]?
A: 90

Q: And the “Foxtail, Giant plant response rating” value [15, 18]?
A: 100

Q: And the “Plant response rating, Foxtail, Giant” value [15, 19]?
A: 100
